In patent US9365558B2 (BRISTOL-MYERS SQUIBB COMPANY, priority 2013, dated 2016):
pIC50: −log10 of the molar value.

These compounds were tested against Human MGAT-2 (Homo sapiens (Human), UniProt Q3SYC2) (assay: MGAT LCMS Assay). Details: recombinant MGAT-2 membranes expressed in Sf9 cells; 100 μM 2-oleoylglycerol, 15 μM oleoyl-Coenzyme A; LC/MS of diolein; read-out: h-MGAT LCMS IC50.
Assay type: biochemical
Experimental: Assay plates were run through a fully automated robotics system and shaken for 5 seconds every minute for a total 10 minutes. The reactions were then quenched with 120 μL of ice cold methanol containing 1 μg/mL 1,2-distearoyl-rac-glycerol as the internal standard. Plates were shaken for 2 minutes and spun down to remove protein precipitation. After the spin, samples were transferred to LC/MS compatible PCR plates. For LC/MS analysis, a ThermoFisher Surveyor pump, utilizing a Waters Symmetry C8, 50×2.1 mm column, was used for the chromatography of enzyme products. The buffer system consists of 0.1% formic acid in water with a mobile phase consisting 0.1% formic acid in methanol. The shallow gradient is 90-100% mobile phase in 0.2 min with a total run time of 2.3 min. The first 0.5 minutes of each injection was diverted to waste to eliminate the presence of Phosphate buffer in the enzymatic reaction. The column was run at 0.6 mL/min and a temperature of 65° C. Mass spectrometry analysis of the samples was performed on a ThermoFisher Quantum Triple quad utilizing APCI (+) as the mode of ionization. […] The ratio of Diolein to internal standard (Peak Area Ratio) is utilized to calculate IC50 values.

Sequence of Human MGAT-2 (Q3SYC2 whole entry): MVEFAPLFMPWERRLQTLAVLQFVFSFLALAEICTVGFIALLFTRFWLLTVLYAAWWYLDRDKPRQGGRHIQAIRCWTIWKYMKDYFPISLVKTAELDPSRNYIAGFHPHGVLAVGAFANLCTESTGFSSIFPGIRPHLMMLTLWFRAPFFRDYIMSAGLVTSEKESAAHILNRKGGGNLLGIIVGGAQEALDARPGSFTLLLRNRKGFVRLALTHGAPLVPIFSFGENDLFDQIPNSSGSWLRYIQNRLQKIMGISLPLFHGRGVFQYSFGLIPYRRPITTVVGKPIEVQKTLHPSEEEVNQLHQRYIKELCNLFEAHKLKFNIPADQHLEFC

In order of rising pIC50:
1. COc1ccc(C2=C(C(=O)NS(=O)(=O)N(C)C)C(=O)N[C@@](c3ccc(OCCCC(F)(F)F)cc3)(C(F)(F)F)C2)cc1 [Example 35]  6.45
2. Cc1ccc(C2=C(C(=O)NS(=O)(=O)C(C)(C)C)C(=O)N[C@@](c3ccc(OCCCC(F)(F)F)cc3)(C(F)(F)F)C2)cc1 [Example 28]  6.46
3. COc1ccc(C2=C(C(=O)NS(C)(=O)=O)C(=O)N[C@@](c3ccc(OCCCC(F)(F)F)cc3)(C(F)(F)F)C2)cc1 [Example 34]  6.53
4. CCCCCCCc1cnc([C@@]2(C(F)(F)F)CC(c3ccc(C)cc3)=C(C(=O)NS(=O)(=O)C3CC3)C(=O)N2)s1 [Example 41]  6.63
5. Cc1ccc(C2=C(C(=O)NS(C)(=O)=O)C(=O)N[C@](C)(CCC(C)C)C2)cc1 [Example 24]  6.94
6. Cc1ccc(C2=C(C(=O)NS(=O)(=O)c3ccccc3)C(=O)N[C@@](c3ccc(OCCCC(F)(F)F)cc3)(C(F)(F)F)C2)cc1 [Example 29]  7.08
7. CS(=O)(=O)NC(=O)C1=C(c2ccc(OC(F)F)cc2)C[C@](c2ccc(OCCCC(F)(F)F)cc2)(C(F)(F)F)NC1=O [Example 14]  7.27
8. COc1ccc(C2=C(C(=O)NS(=O)(=O)C3CC3)C(=O)N[C@@](c3ccc(OCCCCCC(F)(F)F)cc3)(C(F)(F)F)C2)cn1 [Example 18]  7.28
9. COc1ccc(C2=C(C(=O)NS(C)(=O)=O)C(=O)N[C@@](c3ccc(OCCCCCC(F)(F)F)cc3F)(C(F)(F)F)C2)cc1 [Example 36]  7.28
10. COc1ccc(C2=C(C(=O)NS(=O)(=O)C3CC3)C(=O)N[C@@](c3ccc(OCCCCCC(F)(F)F)cc3)(C(F)(F)F)C2)cc1 [Example 38]  7.37
11. CS(=O)(=O)NC(=O)C1=C(c2ccc(OC(F)F)cc2)C[C@](c2ccc(OCCCCCC(F)(F)F)cc2)(C(F)(F)F)NC1=O [Example 5]  7.42
12. CCS(=O)(=O)NC(=O)C1=C(c2ccc(OC(F)F)cc2)C[C@](c2ccc(OCCCCCC(F)(F)F)cc2)(C(F)(F)F)NC1=O [Example 8]  7.48
13. Cc1ccc(C2=C(C(=O)NS(C)(=O)=O)C(=O)N[C@@](c3ccc(OCc4ccccc4)cc3)(C(F)(F)F)C2)cc1 [Example 17]  7.59
14. Cc1ccc(C2=C(C(=O)NS(=O)(=O)N(C)C)C(=O)N[C@@](c3ccc(OCCCCCC(F)(F)F)cc3)(C(F)(F)F)C2)cc1 [Example 32]  7.60
15. CCCCCCC#C[C@]1(C(F)(F)F)CC(c2ccc(OC(F)F)cc2)=C(C(=O)NS(C)(=O)=O)C(=O)N1 [Example 12]  7.62
16. CN(C)c1ccc(C2=C(C(=O)NS(C)(=O)=O)C(=O)N[C@@](c3ccc(OCCCC(F)(F)F)cc3)(C(F)(F)F)C2)cc1 [Example 25]  7.62
17. CN(C)S(=O)(=O)NC(=O)C1=C(c2ccc(OC(F)F)cc2)C[C@](c2ccc(OCCCCCC(F)(F)F)cc2)(C(F)(F)F)NC1=O [Example 39]  7.64
18. CCCCCCC#C[C@]1(C(F)(F)F)CC(c2ccc(C)cc2)=C(C(=O)NS(=O)(=O)C2CC2)C(=O)N1 [Example 2]  7.70
19. CC(C)n1ccc(C2=C(C(=O)NS(C)(=O)=O)C(=O)N[C@@](c3ccc(OCCCC(F)(F)F)cc3F)(C(F)(F)F)C2)n1 [Example 43]  7.70
20. CC(C)(C)c1ccc(C2=C(C(=O)NS(C)(=O)=O)C(=O)N[C@@](c3ccc(OCCCC(F)(F)F)cc3)(C(F)(F)F)C2)cc1 [Example 26]  7.72
21. Cc1ccc(C2=C(C(=O)NS(=O)(=O)C3CC3)C(=O)N[C@@](c3ccc(OCCCC(F)(F)F)cc3)(C(F)(F)F)C2)cc1 [Example 16]  7.74
22. CCS(=O)(=O)NC(=O)C1=C(c2ccc(C)cc2)C[C@](c2ccc(OCCCCCC(F)(F)F)cc2)(C(F)(F)F)NC1=O [Example 1, (S)—N-(Ethylsulfonyl)-2-oxo-4-(p-tolyl)-6-(4-((6,6,6-trifluorohexyl)oxy)phenyl)-6-(trifluoromethyl)-1,2,5,6-tetrahydropyridine-3-carboxamide]  7.77
23. CN(C)c1ccc(C2=C(C(=O)NS(=O)(=O)C3CC3)C(=O)N[C@@](c3ccc(OCCCCCC(F)(F)F)cc3)(C(F)(F)F)C2)cc1 [Example 4]  7.77
24. CCS(=O)(=O)NC(=O)C1=C(c2ccc(C)cc2)C[C@](c2ccc(OCCCC(F)(F)F)cc2)(C(F)(F)F)NC1=O [Example 19]  7.77
25. Cc1ccc(C2=C(C(=O)NS(C)(=O)=O)C(=O)N[C@@](c3ccc(OCCCCCC(F)(F)F)cc3)(C(F)(F)F)C2)cc1 [Example 9]  7.80
26. CCc1ccc(C2=C(C(=O)NS(C)(=O)=O)C(=O)N[C@@](c3ccc(OCCCC(F)(F)F)cc3)(C(F)(F)F)C2)s1 [Example 7]  7.92
27. Cc1ccc(C2=C(C(=O)NS(=O)(=O)C3CC3)C(=O)N[C@@](c3ccc(OCCCCCC(F)(F)F)cc3)(C(F)(F)F)C2)cc1 [Example 11]  7.92
28. Cc1ccc(C2=C(C(=O)NS(=O)(=O)C3CC3)C(=O)N[C@@](C#CCCCCCC(F)(F)F)(C(F)(F)F)C2)cc1 [Example 33]  7.96
29. Cc1ccc(C2=C(C(=O)NS(=O)(=O)C3CC3)C(=O)N[C@@](c3ncc(CCCCCCC(F)(F)F)s3)(C(F)(F)F)C2)cc1 [Example 3]  8.05
30. COc1ccc(C2=C(C(=O)NS(=O)(=O)C3CC3)C(=O)N[C@@](c3ccc(OCCCC(F)(F)F)cc3)(C(F)(F)F)C2)cc1 [Example 27]  8.10
31. CC(C)n1ccc(C2=C(C(=O)NS(=O)(=O)C3CC3)C(=O)N[C@@](c3ccc(OCCCC(F)(F)F)cc3F)(C(F)(F)F)C2)n1 [Example 42]  8.10
32. CC(C)(C)c1ccc(C2=C(C(=O)NS(C)(=O)=O)C(=O)N[C@@](c3ccc(OCCCCCC(F)(F)F)cc3)(C(F)(F)F)C2)cc1 [Example 21]  8.15
33. Cc1ccc(C2=C(C(=O)NS(C)(=O)=O)C(=O)N[C@@](c3ccc(OCCCC(F)(F)F)cc3)(C(F)(F)F)C2)cc1 [Example 13]  8.22
34. O=C1N[C@@](c2ccc(OCCCCCC(F)(F)F)cc2)(C(F)(F)F)CC(c2ccc(OC(F)F)cc2)=C1C(=O)NS(=O)(=O)C1CC1 [Example 37]  8.22
35. CCc1ccc(C2=C(C(=O)NS(=O)(=O)C3CC3)C(=O)N[C@@](c3ccc(OCCCCCC(F)(F)F)cc3)(C(F)(F)F)C2)s1 [Example 10]  8.30
36. Cc1ccc(C2=C(C(=O)NS(=O)(=O)C(F)(F)F)C(=O)N[C@@](c3ccc(OCCCC(F)(F)F)cc3)(C(F)(F)F)C2)cc1 [Example 30]  8.30
37. Cc1ccc(C2=C(C(=O)NS(=O)(=O)C3CC3)C(=O)N[C@@](c3ccc(OCCCCCC(F)(F)F)cc3F)(C(F)(F)F)C2)cc1 [Example 6]  8.40
38. CCCCCCC#C[C@]1(C(F)(F)F)CC(c2ccc(C)cc2)=C(C(=O)NS(C)(=O)=O)C(=O)N1 [Example 15]  8.40
39. CC(C)(C)c1ccc(C2=C(C(=O)NS(=O)(=O)C3CC3)C(=O)N[C@@](c3ccc(OCCCCCC(F)(F)F)cc3)(C(F)(F)F)C2)cc1 [Example 20]  8.40
40. O=C1N[C@@](c2ccc(OCCCCCC(F)(F)F)cc2)(C(F)(F)F)CC(c2ccc(CC3CC3)cc2)=C1C(=O)NS(=O)(=O)C1CC1 [Example 23]  8.40
41. COc1ccc(C2=C(C(=O)NS(=O)(=O)C3CC3)C(=O)N[C@@](c3ccc(OCCCCCC(F)(F)F)cc3F)(C(F)(F)F)C2)cc1 [Example 22]  8.52
42. CCCCCCCc1cnc([C@]2(C(F)(F)F)CC(c3ccc(C)cc3)=C(C(=O)NS(=O)(=O)C3CC3)C(=O)N2)s1 [Example 40]  8.70
